Test results published in PubChem BioAssay (NCI).
Values joined by “and” are separate entries in the source; they are usually repeats but may differ in a detail not shown here. Equal values may be shown once.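 Tested at 5 concentrations; 48 h exposure; 96-well plates; endpoints linearly interpolated, else capped at highest concentration. GI50 = concentration required for 50% inhibition of growth. At the TGI there is no net growth.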

What was measured:
Test in all cases: NCI tumour cell line growth inhibition, 48 h
UACC-257 melanoma = test system: UACC-257 melanoma
T-47D breast = test system: T-47D breast
HOP-92 NSCLC = test system: HOP-92 NSCLC
MCF7 breast = test system: MCF7 breast
MDA-MB-435 = test system: MDA-MB-435
HCT-15 colon = test system: HCT-15 colon
HT29 colon = test system: HT29 colon
SF-295 CNS = test system: SF-295 CNS
786-0 renal = test system: 786-0 renal
UACC-62 melanoma = test system: UACC-62 melanoma

SMILES	GI50 (UACC-257 melanoma)	TGI (UACC-257 melanoma) [µM]	GI50 (T-47D breast)	TGI (T-47D breast) [µM]	GI50 (HOP-92 NSCLC)	TGI (HOP-92 NSCLC)	GI50 (MCF7 breast)	TGI (MCF7 breast) [µM]	GI50 (MDA-MB-435)	TGI (MDA-MB-435) [µM]	GI50 (HCT-15 colon)	TGI (HCT-15 colon)	GI50 (HT29 colon)	TGI (HT29 colon)	GI50 (SF-295 CNS)	TGI (SF-295 CNS)	GI50 (786-0 renal)	TGI (786-0 renal) [µM]	GI50 (UACC-62 melanoma)	TGI (UACC-62 melanoma)
Nc1ncnc2c1c(C(=O)NO)cn2C1OC(CO)C(O)C1O (configuration not stated)	0.522 µM	3.52	0.0885 µM	1.39	0.205 µM	1.25 µM	0.213 µM	1.69	0.363 µM	1.9	0.213 µM	1.89 µM	0.39 µM	> 100 µM	0.193 µM	1.13 µM	0.63 µM	14.2	0.32 µM	1.19 µM
O=C(Nc1ccc(Cl)cc1F)c1cc(Cl)ccc1O	0.482 µM	6.89	0.253 µM		0.157 µM	0.553 µM	0.442 µM	10.2	0.499 µM	5.26	0.519 µM		3.2 µM	> 31.2 µM	0.99 µM	2.67 µM	1.09 µM	7.03	0.279 µM	1.11 µM
Cc1ccc(C)c(N2C(=O)C(=O)c3c(C)ccc(C)c32)c1		48.2		68.3		96.8 µM		59		46.4		27.2 µM		46.4 µM		54.8 µM		> 100		34.8 µM
COc1ccc(NC(=O)CC(=O)n2nc(-c3ccccc3)c(N=Nc3ccccc3C)c2-c2ccccc2)cc1		> 100		57.7		34.9 µM		> 100		> 100		> 61.3 µM		> 100 µM		45.6 µM		35.5		46.6 µM
C(=C\c1nc2ccccc2s1)/c1ccc(N2CCOCC2)s1	51.3 µM	> 100	71 µM	> 100	35.7 µM	95.3 µM	75 µM	> 100	> 100 µM	> 100	17.1 µM	> 100 µM	20.8 µM	> 100 µM	24.2 µM	95.4 µM	33.7 µM	> 100	7.94 µM	> 100 µM
Cc1cccc2c1NC(=O)C2(c1ccc(O)cc1)c1ccc(O)cc1	18.4 µM	49.2	< 0.01 µM		1.42 µM	27.6 µM	0.0219 µM	> 59.6	15.4 µM	34.9	0.53 µM	> 100 µM	15.7 µM	46.5 µM	12.6 µM	38.1 µM	17.9 µM	40.1	11.4 µM	35.1 µM
CNc1ccc(C(=O)CC(O)CCC(C)C2OC(=O)CC(O)CC(=O)CC(O)CC(O)CC(O)CC(O)CC3(O)CC(O)C(C(=O)NCCc4ccccn4)C(CC(OC4OC(C)C(O)C(N)C4O)/C=C/C=C/C=C/C=C\C=C/C=C/C=C/C2C)O3)cc1 (configuration not stated)			1.26 µM	> 50	1.48 µM	19.2 µM	1.25 µM	10.4	0.128 µM	0.406	4.75 µM	> 50 µM	2.65 µM	> 50 µM	1.05 µM	11.4 µM	0.118 µM	0.361	1.54 µM	> 34.2 µM
O=C(Nc1ccc(O)c(NS(=O)(=O)c2ccc(F)cc2)c1)c1ccc(-c2ccccc2)cc1	5.71 µM	46.6	3.07 µM	18.4	2.68 µM	17.1 µM	3.85 µM	17.4	8.12 µM	26	4.36 µM	17.3 µM	14.1 µM	30.9 µM	9.71 µM	24 µM	7.87 µM	22.7	7.53 µM	28.1 µM
O=C(O)CP(=O)(c1ccccc1)c1ccccc1.O=C(O)CP(=O)(c1ccccc1)c1ccccc1.[Cd]	15.4 µM	31.4	24 µM	73.3	18.4 µM	33.7 µM	27.2 µM	> 100	4.26 µM	22.4	9.21 µM	22.9 µM	18 µM	37.3 µM	30.5 µM	> 100 µM	19.3 µM	60	2.2 µM	6.31 µM
Cc1[nH]c2ccccc2c1C1=CC(=O)C=CC1=O	14.3 µM	28.6	2.65 µM	5.75	13 µM	26.3 µM	9.9 µM	28.8	5.04 µM	23.5	10.9 µM	27.1 µM	13.6 µM	40.1 µM	16.4 µM	41 µM	20.1 µM	43.3	10.4 µM	23.4 µM
COc1cc(C(=O)Nc2cc(O)c(C/C=C(\C)CCC=C(C)C)c(O)c2)cc2c1O[C@]1(C)CC[C@@H](O)C(C)(C)[C@H]1C2	4.91 µM and 1.58 µM	23.8	0.401 µM and 0.69 µM	4.88	0.237 µM and 0.173 µM	8.13 µM and 4.79 µM	0.0507 µM and 0.104 µM	12.3	0.325 µM and 1.26 µM	13	0.471 µM and 0.628 µM	3.38 µM and 3.37 µM	1.42 µM and 0.955 µM	5.43 µM and 3.79 µM	0.00307 µM and < 0.012 µM	0.0135 µM and 0.0515 µM	0.00947 µM and 0.0168 µM	6.07	0.0488 µM and 0.0463 µM	0.803 µM and 1.79 µM
CCCC(=O)Nc1ncnc2c1ncn2C1OC2COP(=O)(O)OC2C1OC(=O)CCC (configuration not stated)	> 1000 µM	> 1000	> 1000 µM	> 1000		> 1000 µM	> 1000 µM	> 1000	> 1000 µM	> 1000	> 1000 µM	> 1000 µM	> 1000 µM	> 1000 µM	> 1000 µM	> 1000 µM	> 1000 µM	> 1000	> 1000 µM	> 1000 µM
COC(=O)c1cc(NC(=O)CN(CCN(CC(=O)O)CC(=O)Nc2ccc(O)c(C(=O)OC)c2)CC(=O)O)ccc1O			32.7 µM	> 100	> 100 µM	> 100 µM	33.5 µM	> 100	> 100 µM	> 100	> 100 µM	> 100 µM	> 100 µM	> 100 µM	25.8 µM	> 100 µM	35.2 µM	> 100	48.2 µM	> 100 µM
